Results published in patent publication US9459246B2, “Induced intercellular communication” (Nodality, Inc., priority 2009, dated 2016).
Values joined by “and” are separate entries in the source; they are usually repeats but may differ in a detail not shown here. Identical values can stand only once.

What was measured:
[1] = test system: AML cells; assay: SCNP of basal and growth-factor modulated signaling in AML patient sample with kinase inhibitors (Example 17, Arm #1); format: cell-based, human; details: patient #1910-017
From the text: This study used peripheral blood or bone marrow samples (n=9), which had been previously ficoll separated and cryopreserved. Patient characteristics are shown Table 8. One cryovial per patient was used. Samples were thawed and centrifuged over ficoll to remove dead cells and debris.
Samples were split to perform the following: Arm #1 assessed basal and modulated signaling in the JAK/STAT, PI3K/mTor, and MEK/ERK pathways in the presence and absence of specific kinase inhibitors. Kinase inhibitors were added 1 hr before the addition of the signaling stimulus. Signaling was induced by individual addition of stem cell factor, Flt3 ligand, G-CSF, IL-3, or thrombopoietin (TPO) for a short period of time (5-15 min). Cells were then fixed, permeabilized, and stained with a cocktail of cell surface and phospho-specific antibodies to measure signaling in multiple cell types. Signaling data is calculated in each cell type using a fold-change metric comparing each condition to its basal state: example: (stimulated^+/−inhibitor)/(unstimulated). Also, cells with an apoptotic phenotype were excluded from the signaling analysis by gating.

[2] = test system: PBMCs; assay: SCNP signaling in LPS-treated PBMCs with inhibitors (Example 14, FIGS. 22, 23); details: LPS plus inhibitor
[3] = test system: monocytes in PBMC; assay: Flow cytometry of intracellular cytokines in SAg-modulated PBMC with inhibitors (Example 12); format: cell-based, human
[4] = test system: peripheral blood mononuclear cells (PBMC); assay: SCNP assay of SAg-modulated PBMC signaling over time, with or without cytokine pathway inhibitors (Examples 10, 11, 13); format: cell-based, human
[5] = test system: PBMCs; format: cell-based, human; details: PBMC, 24 hours
[6] = test system: PBMCs
[7] = test system: PBMCs; assay: SCNP intracellular signaling readouts in PBMCs treated 24 hours with modulator (SAg or LPS) plus inhibitor (Example 9, FIGS. 18-21); format: cell-based, human
[8] = test system: AML cells; assay: Cytotoxic and cytostatic impact of drugs on cultured AML patient cells (Example 17, Arm #2); format: cell-based, human; details: patient #1910-017, 48 hours
Method: This study used peripheral blood or bone marrow samples (n=9), which had been previously ficoll separated and cryopreserved. […] One cryovial per patient was used. Samples were thawed and centrifuged over ficoll to remove dead cells and debris. […] After 2 days the cells were then distributed into wells containing various drugs, wherein the cells were cultured for 48 hours. The cultures were fixed, permeabilized, and stained with a cocktail of antibodies to measure complete cell death, apoptosis, S/G2 phase, M-Phase, and DNA damage. These readouts were also obstained from samples cultured separately with individual growth factors (no drugs) for 4 days.

[9] = test system: PBMCs; assay: SCNP of immunomodulator signaling nodes in PBMC subpopulations of 60 healthy donors (Example 16); format: cell-based, human; details: 15 min
Method: Cryopreserved PBMC samples were thawed at 37° C. and resuspended in RPMI 1% FBS before staining with amine aqua viability dye (Invitrogen, Carlsbad, Calif.). Cells were resuspended in RPMI 10% FBS, aliquoted to 100,000 cells per well of 96-well plates, and rested for 2 h at 37° C. prior to 15 min 37° C. incubation with the following modulators: 1000 IU/ml IFNα (PBL, Piscataqay, N.J.); 250 ng/ml IFNγ, 50 ng/ml IL4, 50 ng/ml IL10, α-IgD 5 m/ml (BD, San Jose, Calif.); 50 ng/ml IL2, 50 ng/ml IL6, 50 ng/ml IL27, CD40L 0.5 μg/ml (R&D, Minneapolis, Minn.); R848 5 μg/ml (Invivogen, San Diego, Calif.); LPS 1 μg/ml, PMA 40 nM (Sigma Aldrich, St. Louis, Mo.). After exposure to modulators, cells were fixed with paraformaldehyde and permeabilized with 100% ice-cold methanol as previously described (5). […]
Flow cytometry data was acquired using FACS DIVA software (BD, San Jose, Calif.) on two LSRII Flow Cytometers (BD, San Jose, Calif.). All flow cytometry data were analyzed with WinList (Verity House Software, Topsham, Me.). […]
Two different metrics are utilized in this study to measure the levels of intracellular signaling proteins in either the unmodulated state or in response to modulation. […] The Equivalent Number of Reference Fluorophores (ERFs), fluorescence measurements calibrated by rainbow calibration particles on each 96-well plate, serve as a basis for all metric calculations (6, 7).

[10] = test system: whole blood; assay: SCNP of cytokine-induced JAK/STAT signaling in whole blood of healthy donors (Example 4); format: cell-based, human
Method: Method: Whole blood from 11 healthy donors (20-65 yrs, 7 males, 4 females, 8 Caucasians, 2 Hispanics, 1 East Asian) was stimulated at 37° C. in 96-well plates with a low, medium, and high dose of GM-CSF, IFN-α, IL-27 and IL-6, each added separately, as described in Example 5. For each dose, a stimulation time course was run with 6 time points between 3 and 45 minutes. […] The SCNP assay was performed using a fluorophore-labeled antibody cocktail to simultaneously measure signaling in six distinct cell populations, including: neutrophils, CD20+ B cells, CD3+CD4+T cells, CD3+CD4− T cells (CD8 enriched), CD3-CD20-lymphocytes (NK cell enriched), and CD14+ monocytes. The median fluorescent intensity of phospho (p)-STAT1(Y701), p-STAT3(Y705), and p-STAT5(Y694) were measured in each defined cell population for each experimental condition.

[11] = test system: PBMCs; assay: SCNP of IFN-α signaling in PBMCs from healthy donors (Examples 5 and 15); format: cell-based, human
Method: (§1) Methods: IFN-α-mediated signaling responses were measured by SCNP in PBMC samples from 12 healthy donors. PBMCs were processed for flow cytometry by fixation and permeabilization followed by incubation with fluorochrome-conjugated antibodies that recognize extracellular lineage markers and intracellular signaling molecules. The levels of several phospho-proteins (p-Stat1, p-Stat3, p-Stat4, p-Stat5, p-Stat6, and p-p38) were measured in multiple cell populations (CD14+ monocytes, CD20+ B cells, CD4+ CD3+ T cells, and CD4− CD3+ T cells) at 15 minutes, 1, 2 and 4 hours post IFN-α exposure as described in Example 6.
as §1, with “IFN-α-mediated” for “Methods: IFN-α-mediated”

Molecule: CS(=O)(=O)N1CCN(Cc2cc3nc(-c4cccc5[nH]ncc45)nc(N4CCOCC4)c3s2)CC1 [GDC-0941]
- SCF induced pAKT [1]: partial inhibition
- SCF induced pS6 [1]: partial inhibition

Molecule: C[C@@H]1CCN(C(=O)CC#N)C[C@@H]1N(C)c1ncnc2[nH]ccc12 [CP-690550]
- IL-3 signaling [1]: complete inhibition
- TPO signaling [1]: partial inhibition
- high basal level of p-STAT5 signaling [1]: inhibited

Molecule: C[C@@H]1CCN(C(=O)CC#N)C[C@@H]1N(C)c1ncnc2[nH]ccc12 [Tofacitinib]
- p-STAT1 and p-STAT3 induction in lymphocytes ([2]; 2 hours): completed abrogated
- p-STAT3 in lymphocytes ([2]; later time points): partially inhibited
- IL-6 in monocytes at other time points [3]: induced IL-6 at the 2 hour and 24 hour time points
- frequency of monocytes expressing TNFα [3]: 46%
- monocytes expressing IL-6 (IL-6+) [3]: 44%
- PI3K pathway activation in lymphocytes [4]: blocked
- STAT induction evoked by SAg modulation [4]: completely abrogated
- overall inhibition of SAg-evoked signaling [4]: broad and potent inhibition of the JAK/STAT pathway and down-stream signaling
- p-STAT5 and PI3K pathway signaling in CD4+ T cells [4]: this inhibition pattern extended to CD4+ T cells
- p-STAT5 and PI3K pathway signaling in CD4− T cells [4]: inhibited
- p-STAT levels in CD4− T cells [4]: restored p-STAT levels to the unmodulated condition
- phosphorylation of STAT1 and STAT5 [4]: weakly reduced
- B cell IL-6 production ([5]; SAg plus inhibitor): blocked
- T cell cytokine production (IL-2 and TNF by CD4+ cells) ([5]; SAg plus inhibitor): blocked
- IL-6 production by monocytes ([5]; inhibitor added): induced
- TNFα production ([5]; monocytes, LPS plus inhibitor): blocked
- inhibition [6]: 102% and 79%
- STAT signaling / STAT phosphorylation ([7]; LPS modulation, FIG. 21): inhibited
- all measured signaling ([7]; SAg modulation, FIG. 19): inhibited all signaling except for monocyte p-STAT6
- lymphocyte signaling ([7]; SAg modulation, FIG. 20): inhibited

Molecule: Cn1cnc2c(F)c(Nc3ccc(Br)cc3Cl)c(C(=O)NOCCO)cc21 [AZD-6244]
- SCF induced pAKT [1]: no inhibition
- SCF induced pS6 [1]: partial inhibition
- SCF-pERK [1]: complete inhibition

Molecule: Cn1c(=O)n(-c2ccc(C(C)(C)C#N)cc2)c2c3cc(-c4cnc5ccccc5c4)ccc3ncc21 [BEZ235]
- SCF induced pAKT [1]: complete inhibition
- SCF induced pS6 [1]: partial inhibition

Molecule: CC(C)C[C@H](NC(=O)[C@H](Cc1ccccc1)NC(=O)c1cnccn1)B(O)O [bortezomib]
- cell death and cytostasis [8]: induced considerable levels of cell death and cytostasis

Molecule: IFN-α
- pStat activation across immune cell subpopulations ([9]; 1000 IU/ml): at least one pStat protein was activated in response to IFNα in all of the immune cell subpopulations
- time of peak activation of all 3 STAT proteins ([10]; all cell subsets): 10 min
- peak response for activation of p-Stat4, p-Stat6, and p-p38 ([11]; majority of cell types tested): 1 h
- peak response for activation of p-Stat1, p-Stat3, and p-Stat5 ([11]; most of the cell types): 15 min

Molecule: Nc1ccn([C@@H]2O[C@H](CO)[C@@H](O)[C@@H]2O)c(=O)n1 [AraC]
- drug induced apoptosis of myeloid cells [8]: resisted apoptosis

Molecule: IL-6: cytokine used as modulator
- time of peak p-STAT1 and p-STAT5 ([10]; CD4+ T cells and monocytes): 10 to 15 min
- time of peak p-STAT3 levels ([10]; CD4+ T cells and monocytes): 3 min

B1: IL-27: cytokine used as modulator (protein, UniProt Q8NEV9 29-243; Q14213 21-229, looked up)
Interleukin-27 subunit alpha: FPRPPGRPQLSLQELRREFTVSLHLARKLLSEVRGQAHRFAESHLPGVNLYLLPLGEQLPDVSLTFQAWRRLSDPERLCFISTTLQPFHALLGGLGTQGRWTNMERMQLWAMRLDLRDLQRHLRFQVLAAGFNLPEEEEEEEEEEEEERKGLLPGALGSALQGPAQVSWPQLLSTYRLLHSLELVLSRAVRELLLLSKAGHSVWPLGFPTLSPQP
Interleukin-27 subunit beta: RKGPPAALTLPRVQCRASRYPIAVDCSWTLPPAPNSTSPVSFIATYRLGMAARGHSWPCLQQTPTSTSCTITDVQLFSMAPYVLNVTAVHPWGSSSSFVPFITEHIIKPDPPEGVRLSPLAERQLQVQWEPPGSWPFPEIFSLKYWIRYKRQGAARFHRVGPIEATSFILRAVRPRARYYVQVAAQDLTDYGELSDWSLPATATMSLGK
- time of peak activation of p-STAT1 and p-STAT3 ([10]; T cell subsets, B cells, and monocytes): 30 min

B2: IFNγ: cytokine used as modulator (protein, UniProt P01579 24-161, looked up)
Interferon gamma: QDPYVKEAENLKKYFNAGHSDVADNGTLFLGILKNWKEESDRKIMQSQIVSFYFKLFKNFKDDQSIQKSVETIKEDMNVKFFNSNKKKRDDFEKLTNYSVTDLNVQRKAIHELIQVMAELSPAAKTGKRKRSQMLFRG
- pStat1 level by cell type ([9]; 250 ng/ml): produced the highest level of pStat1 in monocytes, lower levels in B cells, and a much weaker pStat1 response in T cells
